# According to patent US20210169985A1, “METHODS FOR TREATING GRAM POSITIVE BACTERIAL INFECTION” (INSERM (Institut National de la Santé et de la Recherche …, priority 2018, published 2021):
# Entries after “also recorded” stand apart in the source; their conditions may differ. *1 amine or outer side, *2 acyl side, *3 side chain or, on linkers, in order; H or OH if unused. Where a SMILES comes first, the peptide text is derived from it. Bridges are numbered along the chain shown (N, C = ends). Roman numbers before positions name the chains, in order. [ ]: non-standard residue; d: D form. Actinocin(9to1) = Cc1c2oc3c(C)ccc(C(=O)[*:1])c3nc-2c(C(=O)[*:2])c(N)c1=O; NMeV = CN[C@H](C(=O)O)C(C)C; Sar = CNCC(=O)O
# B1: CXCL1: rCXCL1 (R&D system, 1395-KC-025/CF), key neutrophil chemokine (protein, UniProt P12850 25-96, looked up)
# Growth-regulated alpha protein: APIANELRCQCLQTMAGIHLKNIQSLKVLPSGPHCTQTEVIATLKNGREACLDPEAPLVQKIVQKMLKGVPK
# Assays:
# [1] = test system: CXCL1 production in keratinocytes; experiment: Cytokine quantification in supernatant of murine primary keratinocytes; format: cell-based; conditions: for CXCL1 production by keratinocytes: stimulated 1 or 3 hours vs PBS; for effect of inhibitor on hepcidin-induced CXCL1 production: murine primary keratinocytes with 3.6 μM hepcidin, inhibitor added 30 minutes before (FIG. 2C); for CXCL1 levels in the cell culture supernatant: 3 hours
# Protocol: Keratinocytes were isolated from the skin of 2-day-old WT or Hepc^Δkerat mice, based on modifications from a previously described protocol^8. In brief, dermis were easily separated from epidermis after floating newborn mice skin on freshly thawed cold trypsin 0.25% (thermo fisher 15050065) overnight at 4° C. with the dermis side down. Cells were isolated in stop trypsin medium (DMEM, high glucose, no glutamine, no calcium (thermo fisher 21068028) containing 20% heat inactivated and Chelex (Bio rad 1421253) treated—FBS, 1% GlutaMAXSupplement (thermo fisher 35050061), 1% Sodium Pyruvate (thermo fisher 11360070), 100 U/ml Penicillin, 100 μg/ml Streptomycin (thermo fisher), 2.5 μg/ml Amphotericin B (Gibco)).
# Keratinocytes were obtained by epidermis mechanical dissociation through shaking at 350 rpm for 1 hour at 37° C. The resulting cell suspension was filtered through 100 μm filter, centrifuged at 250 g for 10 min at 4° C., plated on fibronectin and bovine collagen I coated tissue culture plate and incubated at 37° C. in a humidified 5% CO2 atmosphere. The cells were cultured in 0.07 mM calcium medium (low Ca^2+) containing EGF (10 ng/ml) and cholera toxin (10^−10 mol/L). Once confluence reached, cells were switched in 1.2 mM calcium medium (high Ca^2+) in order to assure their differentiation. After three days in high Ca′ cells were differentiated and suitable for different experiments.
# (§1) Keratinocytes, previously starved of FBS for 1 hour, were treated with 1 or 10 μg/ml hepcidin (Peptide International) and incubated for different time points. In some experiments, inhibitors were added 30 minutes before hepcidin treatment during FBS starving: brefaldin A (sigma B7651), cycloheximide (sigma C7698), actinomycinD (sigma A1410). The cells were lysed with Tri reagent (sigma) while supernatant cytokines were measured with the V-PLEX Proinflammatory Panel1 kit (Meso Scale Discovery), according to the manufacturer's instruction.
# GAS NZ131 [2] = experiment: GAS growth inhibition (bacteriostatic) assay; format: cell-based, Group A Streptococcus; conditions: in vitro, overnight growth, hepcidin and LL-37 at the same concentration (FIG. 3A)
# Protocol: (§2) As previously described, 9 GAS NZ131 were grown in Todd Hewitt Broth (THB, Sigma) plus 0.3% yeast extract to early log phase (absorbance at 600 nm, A600=0,2). Bacteria were then diluted in THB to A600=0,001 (≈2×10^5 colony forming units (c.f.u.) m1-1). This bacterial suspension was kept growing overnight at 37° C. in presence of PBS, LL-37, hepcidin (peptide international) or penicillin G (sigma P7794). For antimicrobial killing kinetics, exponential phase GAS (A600=0,4) was exposed to PBS or LL-37 or hepcidin and incubated at 37° C. At different time point serial dilutions of these bacterial suspensions were plated on THA plate for counting surviving c.f.u.
# GAS NZ131 [3] = experiment: GAS antimicrobial killing kinetics (bactericidal) assay; format: cell-based, Group A Streptococcus; conditions: added to the culture medium at 4 μg/ml (FIG. 3B; legend says 32 μM)
# Protocol: as §2
# CXCL1 mRNA = CXCL1 mRNA expression by Q-PCR in primary keratinocytes; format: cell-based, murine; conditions: WT primary keratinocytes, 1 and 3 hours, 360 nM or 3.6 μM (FIG. 2B)
# Protocol: RNA extraction, reverse transcription and quantitative PCR have been performed as previously described {Zumerle, 2014 #46}. All samples were normalized to the threshold cycle value for cyclophilin-A.
# as §1
# GAS [4] = experiment: Therapeutic treatment in GAS induced necrotizing soft tissue infection model; format: in vivo, C57BL6 mice
# Protocol: (§3) A well-established model of necrotizing soft tissue infection was adapted for this study (^7,^9). In brief, 100 μl of a mid logarithmic growth phase (approximately 10^7 c.f.u.) of GAS was mixed with an equal volume of sterile Cytodex beads (Sigma-Aldrich) and injected subcutaneously into the flank of 8- to 12-week-old WT and Hepc^Δkerat14 male littermates, previously shaved (veet hair removal cream). Weight loss and lesion size of mice were daily estimated. After 96 hours mice were sacrificed, skin necrotic ulcers, spleen, and blood (via retro orbital bleeding) were recovered and homogenized in 1:2 mg/μl of sterile PBS. Serial dilutions of tissue homogenate were stretched on THA plates, in order to enumerate living c.f.u.
# For therapeutic treatment C57BL6 mice were infected as described above. One day after infection, animals were subcutaneously injected with PBS (control) or 1 μg of hepcidin (peptide international). Mice were treated again at 48 and 72 hours with 500 ng of hepc-25. After 96 hours mice were sacrificed, spleens were taken, homogenized for c.f.u. enumeration.
# GAS [5] = experiment: CXCL1 rescue experiment in GAS-infected Hepc Δkerat mice; format: in vivo; conditions: subcutaneous 1 μg/mouse daily, four days after GAS injection
# Protocol: as §3
# For rescue experiment WT and Hepc^Δkerat littermates were subcutaneously infected with 10^7 c.f.u. of GAS with mock or 1 μg/mouse of rCXCL1 (R&D system, 1395-KC-025/CF). Mice were intralesionally injected again at 24, 48 and 72 h with mock or 1 μg of rCXCL1.
molecule,measurement,setting,value
"mini-hepcidin: murine mini-hepcidin consisting in the 9 N-terminal amino acids of hepcidin (DTNFPICIF; Hepcidin; UniProt Q9EQ21 59-67, looked up, fragment) [reference compound]",CXCL1 production by keratinocytes,[1]; murine primary keratinocytes,not able to trigger CXCL1 production
same,CXCL1 production by keratinocytes,"[1]; murine primary keratinocytes, listed as Mini-hepcidin",does bot promote CXCL1 production
"Cc1c2oc3c(C)ccc(C(=O)N[C@@H]4C(=O)N[C@H](C(C)C)C(=O)N5CCC[C@H]5C(=O)N(C)CC(=O)N(C)[C@@H](C(C)C)C(=O)O[C@@H]4C)c3nc-2c(C(=O)N[C@@H]2C(=O)N[C@H](C(C)C)C(=O)N3CCC[C@H]3C(=O)N(C)CC(=O)N(C)[C@@H](C(C)C)C(=O)O[C@@H]2C)c(N)c1=O [actinomycin D, actinomycinD, reference compound] (I: T[dV]P[Sar][NMeV] / II: T[dV]P[Sar][NMeV]; ester I:1-I:C, II:1-II:C; linker I:N-II:N via Actinocin(9to1))",effect of inhibitor on hepcidin-induced CXCL1 production,[1],not
"C[C@@H]1C[C@@H]([C@H](O)CC2CC(=O)NC(=O)C2)C(=O)[C@@H](C)C1 [Cycloheximide, cycloheximide, reference compound]",effect of inhibitor on hepcidin-induced CXCL1 production,[1],significantly reduced
LL-37 [reference compound],bacteriostatic effect against GAS (inhibition of GAS growth),GAS NZ131 [2],able to prevent the growth of the bacteria
same,bactericidal activity against GAS (bacterial titers vs control),GAS NZ131 [3],significant reduction in bacterial titers
"hepcidin: mature 25-amino acid form of hepcidin (hepc-25), obtained from Peptide International",CXCL1 expression at the mRNA level,CXCL1 mRNA,did not increase
same,bacteriostatic effect against GAS (inhibition of GAS growth),GAS NZ131 [2],no antimicrobial activity; also recorded: no direct bacteriostatic effect
same,production of other tested inflammatory cytokines,"[1]; murine primary keratinocytes, 360 nM and 3.6 μM hepcidin",not
same,CXCL1 levels in the cell culture supernatant,"[1]; murine primary keratinocytes, 360 nM",150 pg/mL
same,CXCL1 levels in the cell culture supernatant,"[1]; murine primary keratinocytes, 3.6 μM",50 pg/mL
same,CXCL1 production by keratinocytes,[1]; murine primary keratinocytes,dose dependent increase
same,treated mice with no systemic bacterial dissemination (bacteria in the spleen),"GAS [4]; GAS-infected mice, 96 hours after infection, all control mice disseminated",7 out of 9
same,weight (marker of morbidity),"GAS [4]; GAS-infected mice, sc 1 μg at 24 h then 500 ng at 48 and 72 h, 96 hours, vs mock",did not loose weight
same,"signs of morbidity (rough hair coat, hunched posture)","GAS [4]; GAS-infected mice, sc 1 μg at 24 h then 500 ng at 48 and 72 h, vs mock",didn't present any signs of morbidity
same,systemic spread of infection,GAS [4]; local injection at the site of infection (FIG. 2F),prevents systemic spread of infection
same,bactericidal activity against GAS (bacterial titers vs control),GAS NZ131 [3],no effect
B1,number of bacteria in skin of Hepc Δkerat mice,GAS [5],decreased the number of bacteria at the level of WT mice
